Test results: ChEMBL document CHEMBL3352261, “Discovery of inhibitors of the mitotic kinase TTK based on N-(3-(3-sulfamoylphenyl)-1H-indazol-5-yl)-acetamides and carboxamides” (Bioorg Med Chem, 2014)
Converted amounts (≈) assume the structure as drawn.

Experiments:
Cytochrome P450 2C19 = Cytochrome P450 2C19 (Homo sapiens, UniProt P33261); experiment: Inhibition of CYP2C19 in supersomes (unknown origin) using MFC as substrate after 30 mins; assay type: ADME
[1] = target: T1, Dual specificity protein kinase TTK (Homo sapiens, UniProt P33981); experiment: Inhibition of TTK in human HCT116 cells assessed as phosphorylation of histone H3 at Ser10 residue after 4 hrs by immunoassay; assay type: cell-based, HCT-116
T1 sequence (P33981 whole entry): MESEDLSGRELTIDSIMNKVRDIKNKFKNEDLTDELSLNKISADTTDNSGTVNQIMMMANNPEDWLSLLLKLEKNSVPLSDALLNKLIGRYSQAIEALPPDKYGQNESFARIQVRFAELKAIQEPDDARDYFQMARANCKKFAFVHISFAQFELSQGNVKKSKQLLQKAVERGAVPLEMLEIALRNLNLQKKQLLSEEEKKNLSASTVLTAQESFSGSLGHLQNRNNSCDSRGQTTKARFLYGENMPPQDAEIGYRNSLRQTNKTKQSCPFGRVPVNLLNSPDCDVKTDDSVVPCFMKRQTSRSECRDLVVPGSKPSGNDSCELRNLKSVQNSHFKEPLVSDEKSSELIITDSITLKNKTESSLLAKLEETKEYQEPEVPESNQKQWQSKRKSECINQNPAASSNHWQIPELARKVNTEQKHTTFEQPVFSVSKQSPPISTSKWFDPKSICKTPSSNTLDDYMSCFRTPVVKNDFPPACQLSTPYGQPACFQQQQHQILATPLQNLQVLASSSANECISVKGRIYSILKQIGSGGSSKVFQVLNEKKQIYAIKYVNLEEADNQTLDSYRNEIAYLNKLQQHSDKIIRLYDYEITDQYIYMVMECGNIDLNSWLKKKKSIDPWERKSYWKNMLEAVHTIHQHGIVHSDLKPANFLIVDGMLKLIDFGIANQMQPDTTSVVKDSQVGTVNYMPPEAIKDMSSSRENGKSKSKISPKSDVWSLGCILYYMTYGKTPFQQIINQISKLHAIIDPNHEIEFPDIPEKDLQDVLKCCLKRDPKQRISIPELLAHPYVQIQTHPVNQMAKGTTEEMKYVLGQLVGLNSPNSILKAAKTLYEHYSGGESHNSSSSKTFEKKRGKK

[2] = Solubility of the compound at pH 7.4; assay type: physicochemical; details: buffer
[3] = target: Serine/threonine-protein kinase Chk2 (Homo sapiens, UniProt O96017); experiment: Inhibition of CHK2 (unknown origin) by FRET-based homogenous assay
Chain of Serine/threonine-protein kinase Chk2 (O96017 whole entry, the tested form may be a part): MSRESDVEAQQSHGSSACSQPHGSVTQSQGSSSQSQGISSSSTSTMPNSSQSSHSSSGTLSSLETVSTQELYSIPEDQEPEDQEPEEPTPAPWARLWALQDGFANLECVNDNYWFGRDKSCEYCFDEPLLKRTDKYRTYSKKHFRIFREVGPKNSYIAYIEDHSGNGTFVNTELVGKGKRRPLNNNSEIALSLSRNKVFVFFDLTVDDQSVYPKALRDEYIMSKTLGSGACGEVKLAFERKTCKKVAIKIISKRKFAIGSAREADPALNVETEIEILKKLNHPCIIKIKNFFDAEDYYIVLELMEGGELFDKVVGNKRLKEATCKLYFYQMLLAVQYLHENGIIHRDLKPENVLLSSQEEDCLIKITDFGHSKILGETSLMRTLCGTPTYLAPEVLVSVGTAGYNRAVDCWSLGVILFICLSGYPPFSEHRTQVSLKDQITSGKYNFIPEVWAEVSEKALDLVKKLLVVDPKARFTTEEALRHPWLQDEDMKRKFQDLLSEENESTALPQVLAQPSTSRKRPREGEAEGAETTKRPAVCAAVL

[4] = target: T1, Dual specificity protein kinase TTK; experiment: Inhibition of SUMO-tagged human TTK (1-275 residues) compound pre-incubated for 15 mins prior ATP addition by MBP-based assay
Aurora kinase B = Aurora kinase B (Homo sapiens, UniProt Q96GD4); experiment: Inhibition of Aurora B (unknown origin) by FRET-based homogenous assay
Chain of Aurora kinase B (Q96GD4 whole entry): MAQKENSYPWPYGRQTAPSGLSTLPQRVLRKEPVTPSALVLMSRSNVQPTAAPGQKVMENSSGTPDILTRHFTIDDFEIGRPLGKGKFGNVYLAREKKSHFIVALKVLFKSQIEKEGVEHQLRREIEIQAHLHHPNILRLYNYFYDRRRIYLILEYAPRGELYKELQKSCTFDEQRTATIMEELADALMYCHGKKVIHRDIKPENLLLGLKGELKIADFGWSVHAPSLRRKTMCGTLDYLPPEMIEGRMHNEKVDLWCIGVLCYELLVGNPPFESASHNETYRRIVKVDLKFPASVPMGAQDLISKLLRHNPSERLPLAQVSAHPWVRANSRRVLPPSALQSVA

A549 = experiment: Growth inhibition of human A549 cells after 5 days by SRB assay; assay type: functional; details: A549, 120 h
[5] = target: T2, Serine/threonine-protein kinase PLK4 (Homo sapiens, UniProt O00444); experiment: Inhibition of GST-tagged human PLK4 (1-391 residues) phosphorylation by ELISA
T2 sequence (O00444 whole entry): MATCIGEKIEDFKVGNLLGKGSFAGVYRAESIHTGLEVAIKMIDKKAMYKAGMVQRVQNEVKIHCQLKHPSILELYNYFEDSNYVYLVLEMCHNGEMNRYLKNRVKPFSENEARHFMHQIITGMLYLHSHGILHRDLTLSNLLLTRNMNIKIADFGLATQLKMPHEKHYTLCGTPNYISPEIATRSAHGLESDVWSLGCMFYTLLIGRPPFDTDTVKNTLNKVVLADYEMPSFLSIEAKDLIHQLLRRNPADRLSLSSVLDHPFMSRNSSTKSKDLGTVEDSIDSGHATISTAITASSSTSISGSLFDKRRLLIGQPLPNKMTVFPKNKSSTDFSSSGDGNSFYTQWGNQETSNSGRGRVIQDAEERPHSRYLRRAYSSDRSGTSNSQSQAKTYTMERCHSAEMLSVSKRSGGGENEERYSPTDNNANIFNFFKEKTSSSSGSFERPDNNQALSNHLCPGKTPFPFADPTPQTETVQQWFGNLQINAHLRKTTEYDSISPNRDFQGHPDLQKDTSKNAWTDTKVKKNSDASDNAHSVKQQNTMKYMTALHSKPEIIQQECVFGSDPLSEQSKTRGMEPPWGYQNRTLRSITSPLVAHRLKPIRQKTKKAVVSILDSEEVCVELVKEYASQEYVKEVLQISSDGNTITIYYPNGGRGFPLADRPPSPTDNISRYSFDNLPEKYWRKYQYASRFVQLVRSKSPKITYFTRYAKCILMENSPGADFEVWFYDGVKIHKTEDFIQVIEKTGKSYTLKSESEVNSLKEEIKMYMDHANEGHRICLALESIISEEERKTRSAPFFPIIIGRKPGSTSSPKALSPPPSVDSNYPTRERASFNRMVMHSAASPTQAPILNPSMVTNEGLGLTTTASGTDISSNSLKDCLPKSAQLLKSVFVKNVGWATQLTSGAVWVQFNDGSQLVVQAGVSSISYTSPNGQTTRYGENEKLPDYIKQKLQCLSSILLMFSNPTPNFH

[6] = target: Serine/threonine-protein kinase PLK1 (Homo sapiens, UniProt P53350); experiment: Inhibition of PLK1 (unknown origin) by FRET-based homogenous assay
Chain of Serine/threonine-protein kinase PLK1 (P53350 whole entry): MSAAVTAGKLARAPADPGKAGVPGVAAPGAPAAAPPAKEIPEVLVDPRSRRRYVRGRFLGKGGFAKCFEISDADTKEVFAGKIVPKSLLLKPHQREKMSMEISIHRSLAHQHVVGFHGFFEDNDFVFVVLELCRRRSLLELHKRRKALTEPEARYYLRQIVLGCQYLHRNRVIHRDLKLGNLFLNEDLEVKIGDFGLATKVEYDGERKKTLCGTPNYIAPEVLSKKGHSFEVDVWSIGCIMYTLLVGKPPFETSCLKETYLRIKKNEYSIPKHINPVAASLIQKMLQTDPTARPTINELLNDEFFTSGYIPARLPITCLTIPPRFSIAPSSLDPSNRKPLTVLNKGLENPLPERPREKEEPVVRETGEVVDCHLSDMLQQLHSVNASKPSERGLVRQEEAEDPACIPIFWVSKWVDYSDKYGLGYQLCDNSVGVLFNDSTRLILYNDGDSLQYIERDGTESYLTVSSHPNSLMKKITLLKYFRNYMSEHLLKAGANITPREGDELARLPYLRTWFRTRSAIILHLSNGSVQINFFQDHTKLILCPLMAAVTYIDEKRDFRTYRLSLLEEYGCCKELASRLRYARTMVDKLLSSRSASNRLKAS

MDA-MB-468 = experiment: Growth inhibition of human MDA-MB-468 cells after 5 days by SRB assay; assay type: functional; details: MDA-MB-468, 120 h
[7] = Growth inhibition of human HCT116 cells after 5 days by SRB assay; assay type: functional; details: HCT-116, 120 h
Cytochrome P450 2C9 = Cytochrome P450 2C9 (Homo sapiens, UniProt P11712); experiment: Inhibition of CYP2C9 in supersomes (unknown origin) using MFC as substrate after 30 mins; assay type: ADME
Chain of Cytochrome P450 2C9 (P11712 whole entry): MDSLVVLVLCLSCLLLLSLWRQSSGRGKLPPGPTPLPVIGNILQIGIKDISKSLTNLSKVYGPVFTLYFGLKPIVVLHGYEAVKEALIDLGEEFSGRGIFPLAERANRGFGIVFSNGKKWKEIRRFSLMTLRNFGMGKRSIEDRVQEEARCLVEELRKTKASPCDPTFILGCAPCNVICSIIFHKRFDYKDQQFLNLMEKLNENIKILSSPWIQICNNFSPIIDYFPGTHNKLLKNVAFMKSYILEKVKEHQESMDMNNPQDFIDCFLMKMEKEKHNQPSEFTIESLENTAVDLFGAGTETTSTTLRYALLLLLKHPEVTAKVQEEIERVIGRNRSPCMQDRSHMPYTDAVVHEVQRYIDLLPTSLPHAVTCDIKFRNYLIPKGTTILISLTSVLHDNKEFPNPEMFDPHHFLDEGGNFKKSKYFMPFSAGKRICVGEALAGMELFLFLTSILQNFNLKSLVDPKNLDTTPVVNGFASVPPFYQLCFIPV

Cytochrome P450 2D6 = Cytochrome P450 2D6 (Homo sapiens, UniProt P10635); experiment: Inhibition of CYP2D6 in supersomes (unknown origin) using AMMC as substrate after 30 mins; assay type: ADME
Chain of Cytochrome P450 2D6 (P10635 whole entry): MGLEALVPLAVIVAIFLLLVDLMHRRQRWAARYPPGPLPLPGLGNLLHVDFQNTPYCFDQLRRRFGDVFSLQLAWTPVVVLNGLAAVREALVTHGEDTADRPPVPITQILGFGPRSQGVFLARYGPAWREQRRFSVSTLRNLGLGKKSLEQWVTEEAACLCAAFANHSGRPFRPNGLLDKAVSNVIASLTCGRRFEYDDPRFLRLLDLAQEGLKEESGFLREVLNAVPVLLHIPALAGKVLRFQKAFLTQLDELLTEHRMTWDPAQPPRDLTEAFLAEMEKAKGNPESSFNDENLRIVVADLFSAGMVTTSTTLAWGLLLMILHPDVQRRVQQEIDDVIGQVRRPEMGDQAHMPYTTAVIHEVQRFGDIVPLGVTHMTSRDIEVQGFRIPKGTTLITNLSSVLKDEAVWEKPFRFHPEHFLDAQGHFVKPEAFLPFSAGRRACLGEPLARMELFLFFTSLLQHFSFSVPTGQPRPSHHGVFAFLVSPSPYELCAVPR

Aurora kinase A = target: T3, Aurora kinase A (Homo sapiens, UniProt O14965); experiment: Inhibition of Aurora A (unknown origin) by FRET-based homogenous assay
T3 sequence (O14965 whole entry): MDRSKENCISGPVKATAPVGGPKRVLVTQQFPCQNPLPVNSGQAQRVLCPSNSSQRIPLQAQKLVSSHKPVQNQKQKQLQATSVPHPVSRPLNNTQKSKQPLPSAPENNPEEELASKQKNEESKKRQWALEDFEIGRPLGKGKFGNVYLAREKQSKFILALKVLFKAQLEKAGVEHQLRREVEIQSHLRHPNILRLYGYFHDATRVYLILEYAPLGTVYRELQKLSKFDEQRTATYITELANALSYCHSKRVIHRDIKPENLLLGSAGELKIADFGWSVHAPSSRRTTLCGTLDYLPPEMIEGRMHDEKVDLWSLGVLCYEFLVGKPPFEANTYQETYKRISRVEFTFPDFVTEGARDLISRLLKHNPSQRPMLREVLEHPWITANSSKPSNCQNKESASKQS

Chain of Cytochrome P450 2C19 (P33261 whole entry): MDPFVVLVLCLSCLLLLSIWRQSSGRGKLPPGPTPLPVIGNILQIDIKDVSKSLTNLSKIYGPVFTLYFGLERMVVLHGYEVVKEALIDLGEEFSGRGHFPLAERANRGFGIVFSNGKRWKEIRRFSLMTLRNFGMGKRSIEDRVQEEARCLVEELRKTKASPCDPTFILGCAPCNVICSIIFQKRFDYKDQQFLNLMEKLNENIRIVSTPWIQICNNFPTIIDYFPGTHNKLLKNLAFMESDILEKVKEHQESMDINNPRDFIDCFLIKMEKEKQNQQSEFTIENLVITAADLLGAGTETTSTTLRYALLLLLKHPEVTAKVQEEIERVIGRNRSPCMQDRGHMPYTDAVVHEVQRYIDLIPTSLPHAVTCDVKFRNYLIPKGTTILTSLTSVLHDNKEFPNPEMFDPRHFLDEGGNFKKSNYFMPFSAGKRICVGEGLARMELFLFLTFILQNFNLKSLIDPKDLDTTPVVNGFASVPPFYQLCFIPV

Row | Structure (SMILES) | IC50 (Cytochrome P450 2C19) | EC50 [1] | solubility [2] | IC50 [3] | IC50 [4] | IC50 (Aurora kinase B) | GI50 (A549) | IC50 [5] | IC50 [6] | GI50 (MDA-MB-468) | GI50 [7] | IC50 (Cytochrome P450 2C9) | IC50 (Cytochrome P450 2D6) | IC50 (Aurora kinase A)
1 | CCc1ccccc1C(C(=O)Nc1ccc2[nH]nc(-c3cccc(S(N)(=O)=O)c3)c2c1)N(C)C (racemic) | 2300 nM | 520 nM | 1.4 µg/mL (≈ 2.93 µM) | 420 nM | 3.6 nM | 480 nM | 160 nM | 83 nM | > 50000 nM | 660 nM | 100 nM | 2500 nM | 5000 nM | 400 nM
2 | NS(=O)(=O)c1cccc(-c2n[nH]c3ccc(NC(=O)C(c4ccsc4)N4CCCC4)cc23)c1 (racemic) | 5300 nM | 420 nM | 9 µg/mL (≈ 18.7 µM) | 100 nM | 2.9 nM | 720 nM | 90 nM | 89 nM | > 50000 nM | 90 nM | 70 nM | 900 nM | 10000 nM | 900 nM
